Experimental data taken from ChEMBL document CHEMBL5325432, “Systematic study of 1,2,3-triazolyl sterols for the development of new drugs against parasitic Neglected Tropical Diseases” (Eur J Med Chem, 2023).

What was measured:
[1] = Cytotoxicity against African green monkey Vero cells incubated for 48 hrs; assay type: toxicity, cell-based; settings: African green monkey (Chlorocebus sabaeus)
Leishmania donovani = experiment: Antileishmanial activity against Leishmania donovani S1 promastigotes assessed as parasite growth inhibition incubated for 72 hrs by Alamar blue assay; assay type: functional, organism-based; settings: S1, 72 h
Trypanosoma cruzi = experiment: Antiparasitic activity against Trypanosoma cruzi epimastigotes assessed as parasite growth inhibition incubated for 14 days by Alamar blue assay; assay type: functional, organism-based; settings: 336 h
Trypanosoma brucei = experiment: Antiparasitic activity against Trypanosoma brucei assessed as parasite growth inhibition incubated for 3 days by Alamar blue assay; assay type: functional, organism-based; settings: 72 h
[2] = Selectivity index, ratio of IC50 for cytotoxicity against African green monkey Vero cells to IC50 for antiparasitic activity against Trypanosoma brucei assessed as parasite growth inhibition; assay type: toxicity, cell-based; settings: read-out: Ratio IC50
[3] = Selectivity index, ratio of IC50 for cytotoxicity against African green monkey Vero cells to IC50 for antileishmanial activity against Leishmania donovani S1 promastigotes assessed as parasite growth inhibition; assay type: toxicity, cell-based; settings: read-out: Ratio IC50
[4] = Selectivity index, ratio of IC50 for cytotoxicity against African green monkey Vero cells to IC50 for antiparasitic activity against Trypanosoma cruzi epimastigotes assessed as parasite growth inhibition; assay type: toxicity, cell-based; settings: read-out: Ratio IC50

| Structure (SMILES) | IC50 (Trypanosoma cruzi) | IC50 (Trypanosoma brucei) | IC50 at 48 h [1] | IC50 (Leishmania donovani) | selectivity ratio [2] | selectivity ratio [3] | selectivity ratio [4] |
| --- | --- | --- | --- | --- | --- | --- | --- |
| C#CCN[C@@H](C)[C@H]1CC[C@H]2[C@@H]3CC=C4C[C@@H](OC(C)=O)CC[C@]4(C)[C@H]3CC[C@]12C | 8.88 µM | 1800 nM | > 11.9 µM | > 10 µM | > 6.44 | – | > 1.31 |
| C[C@@H](NCc1cn(CCCc2ccccc2)nn1)[C@H]1CC[C@H]2[C@@H]3CC=C4C[C@@H](O)CC[C@]4(C)[C@H]3CC[C@]12C | 6.48 µM | 1820 nM | > 9.42 µM | 1.94 µM | > 5.18 | > 5 | > 1.45 |
| C[C@]12CC[C@H]3[C@@H](CC=C4C[C@@H](O)CC[C@@]43C)[C@@H]1CC[C@@H]2[C@@](C)(O)Cn1cc(CCO)nn1 | > 10 µM | 1780 nM | > 11.3 µM | > 10 µM | > 6.33 | – | – |
| CC(=O)O[C@H]1CC[C@@]2(C)C(=CC[C@H]3[C@@H]4CC[C@H]([C@H](C)NCc5cn(Cc6ccccc6)nn5)[C@@]4(C)CC[C@@H]32)C1 | 2.55 µM | 200 nM | > 9.42 µM | 2.54 µM | > 47.1 | > 3.7 | > 3.69 |
| C[C@]12CC[C@H]3[C@@H](CC=C4C[C@@H](O)CC[C@@]43C)[C@@H]1CC[C@@H]2[C@@](C)(O)Cn1cc(-c2ccccc2)nn1 | > 10 µM | > 10000 nM | > 10.5 µM | > 10 µM | – | – | – |
| CC(=O)O[C@H]1CC[C@@]2(C)C(=CC[C@H]3[C@@H]4CC[C@H]([C@@H](C)NCc5cn(CCCc6ccccc6)nn5)[C@@]4(C)CC[C@@H]32)C1 | 4.5 µM | 200 nM | > 8.95 µM | > 10 µM | > 44.7 | – | > 1.99 |
| C#CCNC[C@](C)(O)[C@H]1CC[C@H]2[C@@H]3CC=C4C[C@@H](O)CC[C@]4(C)[C@H]3CC[C@@]21C | > 10 µM | 1770 nM | > 12.3 µM | > 10 µM | > 6.95 | – | – |
| CCCCCCCCn1cc(CN[C@H](C)[C@H]2CC[C@H]3[C@@H]4CC=C5C[C@@H](OC(C)=O)CC[C@]5(C)[C@H]4CC[C@]23C)nn1 | > 10 µM | 1980 nM | > 9.04 µM | > 10 µM | > 4.57 | – | – |
| COC(=O)c1cn(C[C@](C)(O)[C@H]2CC[C@H]3[C@@H]4CC=C5C[C@@H](O)CC[C@]5(C)[C@H]4CC[C@@]32C)nn1 | > 10 µM | 8280 nM | > 10.6 µM | > 10 µM | > 1.28 | – | – |
| C[C@]12CC[C@H]3[C@@H](CC=C4C[C@@H](O)CC[C@@]43C)[C@@H]1CC[C@@H]2[C@@](C)(O)CNCc1cn(CCCc2ccccc2)nn1 | > 10 µM | > 10000 nM | > 9.14 µM | 1.04 µM | – | > 8.77 | – |
| CC(=O)O[C@H]1CC[C@@]2(C)C(=CC[C@H]3[C@@H]4CC[C@H]([C@H](C)NCc5cn(C/C=C(\C)CCC=C(C)C)nn5)[C@@]4(C)CC[C@@H]32)C1 | > 10 µM | 630 nM | > 8.67 µM | 4.83 µM | > 13.8 | > 1.79 | – |
| CCCCCCCCn1cc(CN[C@H](C)[C@H]2CC[C@H]3[C@@H]4CC=C5C[C@@H](O)CC[C@]5(C)[C@H]4CC[C@]23C)nn1 | > 10 µM | 1500 nM | > 9.79 µM | 2.55 µM | > 6.53 | > 3.85 | – |
| CCCCCc1cn(C[C@](C)(O)[C@H]2CC[C@H]3[C@@H]4CC=C5C[C@@H](O)CC[C@]5(C)[C@H]4CC[C@@]32C)nn1 | 6.33 µM | 180 nM | > 10.6 µM | > 10 µM | > 59.8 | – | > 1.68 |
| O=C(Cn1ccnc1[N+](=O)[O-])NCc1ccccc1 [BENZNIDAZOLE] | 7.4 µM | – | – | – | – | – | 1.9 |
| CC1CS(=O)(=O)CCN1/N=C/c1ccc([N+](=O)[O-])o1 (stereo not given) [NIFURTIMOX] | – | – | – | – | 18.8 | – | 15.2 |
| N=C(N)c1ccc(OCCCCCOc2ccc(C(=N)N)cc2)cc1 [PENTAMIDINE] | – | – | – | – | – | 7.6 | – |

Second part, led by results:

| IC50 (Trypanosoma cruzi) | IC50 (Trypanosoma brucei) | Structure (SMILES) | IC50 at 48 h [1] | IC50 (Leishmania donovani) | selectivity ratio [2] | selectivity ratio [3] | selectivity ratio [4] |
| --- | --- | --- | --- | --- | --- | --- | --- |
| > 10 µM | 1150 nM | CC(=O)O[C@H]1CC[C@@]2(C)C(=CC[C@H]3[C@@H]4CC[C@H]([C@@H](C)NCc5cn(Cc6ccccc6)nn5)[C@@]4(C)CC[C@@H]32)C1 | > 7.16 µM | > 10 µM | > 6.22 | – | – |
| > 10 µM | 1250 nM | CC(=O)O[C@H]1CC[C@@]2(C)C(=CC[C@H]3[C@@H]4CC[C@H]([C@@H](C)NCc5cn(C/C=C(\C)CCC=C(C)C)nn5)[C@@]4(C)CC[C@@H]32)C1 | > 8.67 µM | 10.3 µM | > 6.93 | 0.84 | – |
| > 10 µM | 620 nM | CCCCCCCCn1cc(CN[C@@H](C)[C@H]2CC[C@H]3[C@@H]4CC=C5C[C@@H](OC(C)=O)CC[C@]5(C)[C@H]4CC[C@]23C)nn1 | > 9.04 µM | 7.87 µM | > 14.6 | > 1.15 | – |
| > 10 µM | 2270 nM | C[C@]12CC[C@H]3[C@@H](CC=C4C[C@@H](O)CC[C@@]43C)[C@@H]1CC[C@@H]2[C@@](C)(O)Cn1cc(CCCc2ccccc2)nn1 | > 9.66 µM | > 10 µM | > 4.25 | – | – |
| 2.22 µM | 1430 nM | C[C@H](NCc1cn(CCCc2ccccc2)nn1)[C@H]1CC[C@H]2[C@@H]3CC=C4C[C@@H](O)CC[C@]4(C)[C@H]3CC[C@]12C | > 9.68 µM | 1.35 µM | > 6.77 | > 7.14 | > 4.36 |
| 1.95 µM | 550 nM | CCCCCCCCn1cc(CN[C@@H](C)[C@H]2CC[C@H]3[C@@H]4CC=C5C[C@@H](O)CC[C@]5(C)[C@H]4CC[C@]23C)nn1 | > 9.79 µM | 1.47 µM | > 17.8 | > 6.67 | > 5.02 |
| 0.33 µM | 680 nM | C[C@H](NCc1cn(Cc2ccccc2)nn1)[C@H]1CC[C@H]2[C@@H]3CC=C4C[C@@H](O)CC[C@]4(C)[C@H]3CC[C@]12C | > 10.2 µM | 1.33 µM | > 15 | > 7.69 | > 31 |
| > 10 µM | 5030 nM | C#CCN[C@H](C)[C@H]1CC[C@H]2[C@@H]3CC=C4C[C@@H](OC(C)=O)CC[C@]4(C)[C@H]3CC[C@]12C | > 11.9 µM | > 10 µM | > 2.3 | – | – |
| > 10 µM | > 10000 nM | CCOC(=O)Cn1cc(CNC[C@](C)(O)[C@H]2CC[C@H]3[C@@H]4CC=C5C[C@@H](O)CC[C@]5(C)[C@H]4CC[C@@]32C)nn1 | > 9.71 µM | > 10 µM | – | – | – |
| > 10 µM | > 10000 nM | CCOC(=O)Cn1cc(CN[C@@H](C)[C@H]2CC[C@H]3[C@@H]4CC=C5C[C@@H](O)CC[C@]5(C)[C@H]4CC[C@]23C)nn1 | > 10.3 µM | 6.4 µM | – | > 1.61 | – |
| > 10 µM | > 10000 nM | C[C@]12CC[C@H]3[C@@H](CC=C4C[C@@H](O)CC[C@@]43C)[C@@H]1CC[C@@H]2[C@@](C)(O)CN=[N+]=[N-] | > 12 µM | > 10 µM | – | – | – |
| 3.17 µM | 640 nM | CC(C)=CCC/C(C)=C/Cn1cc(CN[C@@H](C)[C@H]2CC[C@H]3[C@@H]4CC=C5C[C@@H](O)CC[C@]5(C)[C@H]4CC[C@]23C)nn1 | > 9.35 µM | 1.68 µM | > 14.6 | > 5.56 | > 2.95 |
| > 10 µM | 6500 nM | CCOC(=O)Cn1cc(CN[C@H](C)[C@H]2CC[C@H]3[C@@H]4CC=C5C[C@@H](OC(C)=O)CC[C@]5(C)[C@H]4CC[C@]23C)nn1 | > 9.49 µM | > 10 µM | > 1.46 | – | – |
| > 10 µM | 6500 nM | CCOC(=O)Cn1cc(CN[C@H](C)[C@H]2CC[C@H]3[C@@H]4CC=C5C[C@@H](O)CC[C@]5(C)[C@H]4CC[C@]23C)nn1 | > 10.3 µM | 6.6 µM | > 1.59 | > 1.56 | – |
| 2.47 µM | 1770 nM | C[C@@H](NCc1cn(Cc2ccccc2)nn1)[C@H]1CC[C@H]2[C@@H]3CC=C4C[C@@H](O)CC[C@]4(C)[C@H]3CC[C@]12C | > 10.2 µM | 6.14 µM | > 5.78 | > 1.67 | > 4.14 |
| > 10 µM | 660 nM | CC(C)=CCC/C(C)=C/Cn1cc(CN[C@H](C)[C@H]2CC[C@H]3[C@@H]4CC=C5C[C@@H](O)CC[C@]5(C)[C@H]4CC[C@]23C)nn1 | > 9.35 µM | 1.14 µM | > 14.2 | > 8.2 | – |
